Experimental data taken from patent US8754130B2, “Compositions of dibromomalonamide and their use as biocides” (Dow Global Technologies LLC, priority 2009, dated 2014).
Read-outs that look alike come from different tables or passages of the source.

Experiments:
[1] = tested on: consortium of bacteria: mixture of Pseudomonas aeruginosa, Klebsiella pneumoniae, Staphylococcus aureus, and Bacillus subtilis; experiment: Growth inhibition assay (microtiter plate-based synergy assay); assay type: cell-based; conditions: 24 h; for I90 value (minimum concentration in which growth of the consortium is at least 90% less than controls): single active alone
[2] = as above; assay type: cell-based; conditions: 24 h

CCCCn1sc2ccccc2c1=O [BBIT, N-butyl-1,2-benzisothiazolin-3-one]
% Inhibition of growth by BBIT ([1]; BBIT 6.25 mg/l alone): 32% | % Inhibition of growth by BBIT ([1]; BBIT 12.5 mg/l alone): 24% | % Inhibition of growth by BBIT ([1]; BBIT 25.0 mg/l alone): 49% | I90 value (minimum concentration in which growth of the consortium is at least 90% less than controls) [1]: 50.0 mg/L

O=c1[nH]sc2ccccc12 [BIT, 1,2-benzisothiazolin-3-one]
% Inhibition of growth by BIT ([1]; BIT 3.91 mg/l alone): 17% | % Inhibition of growth by BIT ([1]; BIT 7.81 mg/l alone): 46% | I90 value (minimum concentration in which growth of the consortium is at least 90% less than controls) [1]: 15.63 mg/L

Cn1sc(Cl)cc1=O [CMIT, 5-chloro-2-methyl-4-isothiazolin-3-one]
I90 value (minimum concentration in which growth of the consortium is at least 90% less than controls) [1]: 0.78 mg/L | inhibition at 0.39 µg/mL ([2]; CMIT 0.39 mg/l alone, read-out: % Inhibition of growth by CMIT): 10% | inhibition at 0.78 µg/mL ([2]; CMIT 0.78 mg/l alone, read-out: % Inhibition of growth by CMIT): 97% | inhibition at 1.56 µg/mL ([2]; CMIT 1.56 mg/l alone, read-out: % Inhibition of growth by CMIT): 96% | inhibition at 3.13 µg/mL ([2]; CMIT 3.13 mg/l alone, read-out: % Inhibition of growth by CMIT): 98% | inhibition at 6.25 µg/mL ([2]; CMIT 6.25 mg/l alone, read-out: % Inhibition of growth by CMIT): 97% | inhibition at 12.5 µg/mL ([2]; CMIT 12.5 mg/l alone, read-out: % Inhibition of growth by CMIT): 96% | inhibition at 25 µg/mL ([2]; CMIT 25.0 mg/l alone, read-out: % Inhibition of growth by CMIT): 98%

NC(=O)C(Br)(Br)C(N)=O [DBMAL, 2,2-dibromomalonamide]
inhibition at 0.39 µg/mL ([2]; Table 2, DBMAL 0.39 mg/l alone, read-out: % Inhibition of growth by DBMAL): 11% | inhibition at 0.78 µg/mL ([2]; Table 2, DBMAL 0.78 mg/l alone, read-out: % Inhibition of growth by DBMAL): 13% | inhibition at 1.56 µg/mL ([2]; Table 2, DBMAL 1.56 mg/l alone, read-out: % Inhibition of growth by DBMAL): 15% | inhibition at 3.13 µg/mL ([2]; Table 2, DBMAL 3.13 mg/l alone, read-out: % Inhibition of growth by DBMAL): 23% | inhibition at 6.25 µg/mL ([2]; Table 2, DBMAL 6.25 mg/l alone, read-out: % Inhibition of growth by DBMAL): 0% | inhibition at 12.5 µg/mL ([2]; Table 2, DBMAL 12.5 mg/l alone, read-out: % Inhibition of growth by DBMAL): 98% | inhibition at 0.39 µg/mL ([2]; Table 4, DBMAL 0.39 mg/l alone, read-out: % Inhibition of growth by DBMAL): 6% | inhibition at 0.78 µg/mL ([2]; Table 4, DBMAL 0.78 mg/l alone, read-out: % Inhibition of growth by DBMAL): 2% | inhibition at 1.56 µg/mL ([2]; Table 4, DBMAL 1.56 mg/l alone, read-out: % Inhibition of growth by DBMAL): 1% | inhibition at 6.25 µg/mL ([2]; Table 4, DBMAL 6.25 mg/l alone, read-out: % Inhibition of growth by DBMAL): 23% | inhibition at 25 µg/mL ([2]; Table 4, DBMAL 25.0 mg/l alone, read-out: % Inhibition of growth by DBMAL): 100% | inhibition at 0.39 µg/mL ([2]; Table 6, DBMAL 0.39 mg/l alone, read-out: % Inhibition of growth by DBMAL): 0% | inhibition at 0.78 µg/mL ([2]; Table 6, DBMAL 0.78 mg/l alone, read-out: % Inhibition of growth by DBMAL): 6% | inhibition at 3.13 µg/mL ([2]; Table 6, DBMAL 3.13 mg/l alone, read-out: % Inhibition of growth by DBMAL): 11% | inhibition at 6.25 µg/mL ([2]; Table 6, DBMAL 6.25 mg/l alone, read-out: % Inhibition of growth by DBMAL): 28% | inhibition at 12.5 µg/mL ([2]; Table 6, DBMAL 12.5 mg/l alone, read-out: % Inhibition of growth by DBMAL): 100% | inhibition at 25 µg/mL ([2]; Table 6, DBMAL 25.0 mg/l alone, read-out: % Inhibition of growth by DBMAL): 100% | inhibition at 0.39 µg/mL ([2]; Table 8, DBMAL 0.39 mg/l alone, read-out: % Inhibition of growth by DBMAL): 3% | inhibition at 0.78 µg/mL ([2]; Table 8, DBMAL 0.78 mg/l alone, read-out: % Inhibition of growth by DBMAL): 1% | inhibition at 1.56 µg/mL ([2]; Table 8, DBMAL 1.56 mg/l alone, read-out: % Inhibition of growth by DBMAL): 0% | inhibition at 3.13 µg/mL ([2]; Table 8, DBMAL 3.13 mg/l alone, read-out: % Inhibition of growth by DBMAL): 8% | inhibition at 6.25 µg/mL ([2]; Table 8, DBMAL 6.25 mg/l alone, read-out: % Inhibition of growth by DBMAL): 45% | inhibition at 12.5 µg/mL ([2]; Table 8, DBMAL 12.5 mg/l alone, read-out: % Inhibition of growth by DBMAL): 100% | inhibition at 25 µg/mL ([2]; Table 8, DBMAL 25.0 mg/l alone, read-out: % Inhibition of growth by DBMAL): 99% | inhibition at 0.39 µg/mL ([2]; Table 10, DBMAL 0.39 mg/l alone, read-out: % Inhibition of growth by DBMAL): 3% | inhibition at 0.78 µg/mL ([2]; Table 10, DBMAL 0.78 mg/l alone, read-out: % Inhibition of growth by DBMAL): 0% | inhibition at 1.56 µg/mL ([2]; Table 10, DBMAL 1.56 mg/l alone, read-out: % Inhibition of growth by DBMAL): 1% | inhibition at 3.13 µg/mL ([2]; Table 10, DBMAL 3.13 mg/l alone, read-out: % Inhibition of growth by DBMAL): 0% | inhibition at 6.25 µg/mL ([2]; Table 10, DBMAL 6.25 mg/l alone, read-out: % Inhibition of growth by DBMAL): 44% | inhibition at 12.5 µg/mL ([2]; Table 10, DBMAL 12.5 mg/l alone, read-out: % Inhibition of growth by DBMAL): 100% | inhibition at 25 µg/mL ([2]; Table 10, DBMAL 25.0 mg/l alone, read-out: % Inhibition of growth by DBMAL): 100% | inhibition at 0.39 µg/mL ([2]; Table 12, DBMAL 0.39 mg/l alone, read-out: % Inhibition of growth by DBMAL): 3% | inhibition at 0.78 µg/mL ([2]; Table 12, DBMAL 0.78 mg/l alone, read-out: % Inhibition of growth by DBMAL): 0% | inhibition at 1.56 µg/mL ([2]; Table 12, DBMAL 1.56 mg/l alone, read-out: % Inhibition of growth by DBMAL): 1% | inhibition at 3.13 µg/mL ([2]; Table 12, DBMAL 3.13 mg/l alone, read-out: % Inhibition of growth by DBMAL): 0% | inhibition at 6.25 µg/mL ([2]; Table 12, DBMAL 6.25 mg/l alone, read-out: % Inhibition of growth by DBMAL): 44% | inhibition at 12.5 µg/mL ([2]; Table 12, DBMAL 12.5 mg/l alone, read-out: % Inhibition of growth by DBMAL): 100% | inhibition at 25 µg/mL ([2]; Table 12, DBMAL 25.0 mg/l alone, read-out: % Inhibition of growth by DBMAL): 100% | inhibition at 0.39 µg/mL ([2]; Table 14, DBMAL 0.39 mg/l alone, read-out: % Inhibition of growth by DBMAL): 3% | inhibition at 0.78 µg/mL ([2]; Table 14, DBMAL 0.78 mg/l alone, read-out: % Inhibition of growth by DBMAL): 0% | inhibition at 1.56 µg/mL ([2]; Table 14, DBMAL 1.56 mg/l alone, read-out: % Inhibition of growth by DBMAL): 0% | inhibition at 3.13 µg/mL ([2]; Table 14, DBMAL 3.13 mg/l alone, read-out: % Inhibition of growth by DBMAL): 0% | inhibition at 6.25 µg/mL ([2]; Table 14, DBMAL 6.25 mg/l alone, read-out: % Inhibition of growth by DBMAL): 34% | inhibition at 12.5 µg/mL ([2]; Table 14, DBMAL 12.5 mg/l alone, read-out: % Inhibition of growth by DBMAL): 93% | inhibition at 25 µg/mL ([2]; Table 14, DBMAL 25.0 mg/l alone, read-out: % Inhibition of growth by DBMAL): 100%

Cn1sc2ccccc2c1=O [MBIT, N-methyl-1,2-benzisothiazolin-3-one]
% Inhibition of growth by MBIT ([1]; MBIT 0.78 mg/l alone): 16% | % Inhibition of growth by MBIT ([1]; MBIT 1.56 mg/l alone): 13% | % Inhibition of growth by MBIT ([1]; MBIT 6.25 mg/l alone): 26% | % Inhibition of growth by MBIT ([1]; MBIT 12.5 mg/l alone): 53% | % Inhibition of growth by MBIT ([1]; MBIT 25.0 mg/l alone): 23% | % Inhibition of growth by MBIT ([1]; MBIT 50.0 mg/l alone): 67% | I90 value (minimum concentration in which growth of the consortium is at least 90% less than controls) [1]: 100.0 mg/L

Cn1sccc1=O [MIT, 2-methyl-4-isothiazolin-3-one]
I90 value (minimum concentration in which growth of the consortium is at least 90% less than controls) [1]: 25 mg/L | inhibition at […] ([2]; MIT 0.19 mg/l alone): 0% | inhibition at 0.39 µg/mL ([2]; MIT 0.39 mg/l alone, read-out: % Inhibition of growth by MIT): 0% | inhibition at 0.78 µg/mL ([2]; MIT 0.78 mg/l alone, read-out: % Inhibition of growth by MIT): 0% | inhibition at 1.56 µg/mL ([2]; MIT 1.56 mg/l alone, read-out: % Inhibition of growth by MIT): 6% | inhibition at 3.13 µg/mL ([2]; MIT 3.13 mg/l alone, read-out: % Inhibition of growth by MIT): 6% | inhibition at 6.25 µg/mL ([2]; MIT 6.25 mg/l alone, read-out: % Inhibition of growth by MIT): 16% | inhibition at 12.5 µg/mL ([2]; MIT 12.5 mg/l alone, read-out: % Inhibition of growth by MIT): 38% | inhibition at 25 µg/mL ([2]; MIT 25.0 mg/l alone, read-out: % Inhibition of growth by MIT): 96%

CCCCCCCCn1sccc1=O [OIT, 2-n-octyl-4-isothiazolin-3-one]
I90 value (minimum concentration in which growth of the consortium is at least 90% less than controls) [1]: 125 mg/L | inhibition at 3.91 µg/mL ([2]; OIT 3.91 mg/l alone): 0% | inhibition at 7.81 µg/mL ([2]; OIT 7.81 mg/l alone): 7% | inhibition at 15.63 µg/mL ([2]; OIT 15.63 mg/l alone): 24% | inhibition at 31.25 µg/mL ([2]; OIT 31.25 mg/l alone): 43% | inhibition at 62.5 µg/mL ([2]; OIT 62.5 mg/l alone): 64% | inhibition at 125 µg/mL ([2]; OIT 125.0 mg/l alone): 100% | inhibition at 250 µg/mL ([2]; OIT 250.0 mg/l alone): 100% | inhibition at 500 µg/mL ([2]; OIT 500.0 mg/l alone): 100%
